Marks after values point to notes of the source that are not given here.
Legend:
plasma hemostasis [1] = test: Thrombin time after intravenous administration; assay type: in vivo, rabbit
Description: (§1) The investigations were performed on 72 rabbits of the “Chinchilla” breed with a mass of 2.5±0.3 kg, who were administered which solutions of compounds 2, 15, 21, 37 in doses of 15, 30 and 60 mg/kg intravenously. The experiments included the thrombin-test (series No. 7300) and the coagulability-test (series No. 5000) purchased from the scientific-and-production association (SPA) “Renam”, thromboplastin (series No. 240600) and calcium chloride purchased from the SPA “MedioLab”
(§2) The static parameters of the blood and plasma coagulation (partial activated thromboplastin time, thrombin time, maximum coagulation activity (test for auto coagulation) were determined using the Behnk Electronic coagulometer (Germany). The operating principle of this instrument is based on the fact that the formed blood clot breaks the contacts of the pulse counter in the flask-pin circuit, said pin permanently oscillating in a vertical plane. The moment of formation of the clot is registered by stopping the stop watch hand.
(§3) The measurements were effected at a constant temperature of 37° C. maintained by a temperature control unit.
The “thrombin time” characterizes the rate of transformation of fibrinogen into fibrin. It was determined by measuring the coagulation time of plasma deprived of thrombocytes under the effect of thrombin standardized by the control plasma.
0.2 ml of a thrombin solution was added to 0.2 ml of the test blood plasma of experimental animals, from whom the blood was taken 15, 30, 60 and 120 minutes after the intravenous administration of compounds 2, 15, 21, 37 according to the invention in doses of 15, 30, 60 mg/kg incubated for 1 minute at a temperature of 37° C. and the time of formation of clot T2 in seconds in a coagulometer of the Behnk Electronic Company (Germany).

plasma hemostasis [2] = test: Prothrombin time after intravenous administration; assay type: in vivo, rabbit
Description: as §1, §2, §3
The method of its determination is based on estimation of the coagulation of citrate or oxalic blood plasma, when it is mixed with thromboplastin and a calcium chloride solution. Since under these conditions the time of formation of the clot depends on the content of II, VII, IX and X factors in the investigated plasma sample, now the test is called “thromboplastin time by Quick” or “activity thromboplastin complex”.
Compounds 2, 15, 21, 37 according to the invention at a concentration of 15, 30 and 60 mg/kg were administered to the above experimental animals intravenously and their blood was taken off after 15, 30, 60 and 120 minutes after the administration.
Citrate blood containing 1 part of citrate per 9 parts of native blood was centrifuged at 3000 rev/min for 10 minutes to obtain plasma deprived of thrombocytes.
Added into a test tube in a water bath were 0.1 ml of plasma and 0.1 ml of a thromboplastin solution. After 60 seconds, 0.1 ml of 0.277% solution of calcium chloride was added and the time of reaction T1 in seconds was registered.

[3] = test system: adenosine-sensitive receptors of thrombocytes; test: ADP-induced aggregation of thrombocytes in vitro (Born method); assay type: cell-based, rabbit; details: 3 min incubation, ADP 10^−5 M
Procedure, shortened: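 Platelet-rich plasma from fasted male Chinchilla rabbits (citrated, […]), stirred at 37° C. ADP at 10^−5 M final was added, then compounds at 10^−3 to 10^−7 M for 3 min. Read-out was maximum aggregation amplitude as % fall in optical density, with platelet-poor plasma as 0%.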

O=c1[nH][nH]c(=O)c2c(Br)ncnc12.[K] [Compound 37, potassium salt of 4-bromine-pyrimido[4,5-D]-6H-pyridazine-5,8-dione]
T2, s After 120 minutes (thrombin time) (plasma hemostasis [1]; dose 15.0 mg/kg intravenously): 15.6* s | T2, s after 15 minutes (thrombin time) (plasma hemostasis [1]; dose 15.0 mg/kg intravenously): 16.9* s | T2, s after 30 minutes (thrombin time) (plasma hemostasis [1]; dose 15.0 mg/kg intravenously): 18.2* s | T2, s after 60 minutes (thrombin time) (plasma hemostasis [1]; dose 15.0 mg/kg intravenously): 16.3* s | T2, s After 120 minutes (thrombin time) (plasma hemostasis [1]; dose 30.0 mg/kg intravenously): 15.2* s | T2, s after 15 minutes (thrombin time) (plasma hemostasis [1]; dose 30.0 mg/kg intravenously): 19.5* s | T2, s after 30 minutes (thrombin time) (plasma hemostasis [1]; dose 30.0 mg/kg intravenously): 20.3* s | T2, s after 60 minutes (thrombin time) (plasma hemostasis [1]; dose 30.0 mg/kg intravenously): 21.0* s | T2, s After 120 minutes (thrombin time) (plasma hemostasis [1]; dose 60.0 mg/kg intravenously): 15.0* s | T2, s after 15 minutes (thrombin time) (plasma hemostasis [1]; dose 60.0 mg/kg intravenously): 16.6* s | T2, s after 30 minutes (thrombin time) (plasma hemostasis [1]; dose 60.0 mg/kg intravenously): 17.8* s | T2, s after 60 minutes (thrombin time) (plasma hemostasis [1]; dose 60.0 mg/kg intravenously): 16.2* s | T, s After 120 minutes (prothrombin time) (plasma hemostasis [2]; dose 15.0 mg/kg intravenously): 11.8 ± 0.1 s | T, s after 15 minutes (prothrombin time) (plasma hemostasis [2]; dose 15.0 mg/kg intravenously): 11.6 ± 0.2 s | T, s after 30 minutes (prothrombin time) (plasma hemostasis [2]; dose 15.0 mg/kg intravenously): 11.6 ± 0.1 s | T, s after 60 minutes (prothrombin time) (plasma hemostasis [2]; dose 15.0 mg/kg intravenously): 11.5 ± 0.2 s | T, s After 120 minutes (prothrombin time) (plasma hemostasis [2]; dose 30.0 mg/kg intravenously): 11.1 ± 0.1 s | T, s after 15 minutes (prothrombin time) (plasma hemostasis [2]; dose 30.0 mg/kg intravenously): 11.3 ± 0.1 s | T, s after 30 minutes (prothrombin time) (plasma hemostasis [2]; dose 30.0 mg/kg intravenously): 11.2 ± 0.2 s | T, s after 60 minutes (prothrombin time) (plasma hemostasis [2]; dose 30.0 mg/kg intravenously): 11.4 ± 0.1 s | T, s After 120 minutes (prothrombin time) (plasma hemostasis [2]; dose 60.0 mg/kg intravenously): 12.0 ± 0.1 s | T, s after 15 minutes (prothrombin time) (plasma hemostasis [2]; dose 60.0 mg/kg intravenously): 12.1 ± 0.1 s | T, s after 30 minutes (prothrombin time) (plasma hemostasis [2]; dose 60.0 mg/kg intravenously): 12.0 ± 0.1 s | T, s after 60 minutes (prothrombin time) (plasma hemostasis [2]; dose 60.0 mg/kg intravenously): 12.1 ± 0.2 s | effect on the prothrombin time index (overall) (plasma hemostasis [2]; doses of 15.0, 30.0, 60.0 mg/kg): have no effect on the prothrombin time index | MA - fall of optical density of plasma, % to the standard ([3]; 10^−3 M): 46.9 ± 2.7 % | MA - fall of optical density of plasma, % to the standard ([3]; 10^−4 M): 47.1 ± 2.0 % | MA - fall of optical density of plasma, % to the standard ([3]; 10^−5 M): 40.6 ± 1.7 % | MA - drop of optical density, % compared to control ([3]; 10^−6 M): 48.1 ± 2.9% | MA - drop of optical density, % compared to control ([3]; 10^−7 M): 50.1 ± 1.0%

Reference: patent publication US20070166547A1, “Use of a layer consisting of hydrophobic linear, or two-dimensional polycyclic aromatics as a barrier layer or an encapsulation and electric components constructed with a layer of this type and comprising organic polymers” (priority 2003, published 2007)
